Assay results from patent US9486472B2, “Methods for modulating neuronal responses” (UNIVERSITY OF BRITISH COLUMBIA CANADA, priority 2003, dated 2016).
No end group written: not given here.

Experiments:
rats [1] = details: IV 60 min prior to test session; versus saline
Protocol: A. Rats maintained on a restricted feeding schedule were trained to lever-press for food pellets (45 mg) on a fixed-ratio 2 (FR2) schedule during 2-hour test sessions. Rats received IV injections of saline, GluR2-3A, or GluR2-3Y, in a counterbalanced order, 60 min prior to the test session. […] B. Rats were first trained to self-administer d-amphetamine (0.2 mg/infusion) via a jugular catheter on an FR2 schedule of reinforcement. Once responding in the 3 hour test sessions had stabilized, the rats were then trained on a Progressive Ratio Schedule in which successively more responses were required to obtain each successive reinforcement. […] Once stable Break point values were established, rats received IV injections of saline, GluR2-3A, or GluR2-3Y, in a counterbalanced order, 60 min prior to the test session.

Sprague-Dawley rats = assay: Transient focal ischemia model (MCA occlusion), TUNEL staining and neurological exam; type: in vivo, rat; details: 10 min prior to MCA occlusion; 3 nmoles/g
Protocol: The procedure was performed essentially as described previously (70). Briefly, adult male Sprague-Dawley rats between 280 and 320 g (20 h fasted weight) were anesthetized with an inhaled mixture of 4% isofluorane, in 30% oxygen balanced nitrous oxide, and maintained on 1.5% isofluorane. Bronchial secretions were minimized by administering 0.5 mg/kg of atropine intraperitoneally. […] The experimenter was blinded to the identity of the treatment groups for all surgeries and down-stream experiments. Under a dissection microscope, the common carotid artery (CCA), external carotid artery (ECA), and internal carotid artery (ICA) were exposed and dissected. […] Rectal temperature, and blood pressure measured with a tail cuff were measured before treatment, 15 min post injection, 50 min post injection, and 15 min post MCA occlusion. The plasma pH, O2, and CO2 were measured with a Rapidlab™ 348 blood gas analyzer (Bayer Diagnostics) in some animals to ensure that the gas flow rates used were appropriate and yielded reproducible blood gases. […]
At day 1 post MCAo rats were anesthetized with 1.5 mL of 25% urethane and were perfused with 100 mL of 0.9% saline followed by 120 mLs of 4% paraformaldehyde in PBS. […] The slices were scored for number of cells that stained positive for TMR-TUNEL per field of view at 10× magnification. […]

rats [2] = assay: Behavioural sensitization to d-amphetamine (stereotypy scores); type: in vivo, rat; details: one hour intravenous pre-treatment
Protocol: To induces behaviour sensitization to addictive drugs that lead to substance abuse, four separate groups of adult rats were given repetitive injections of damphetamine (2 mg/kg, intraperitoneally (IP)) or saline, every other day for a total of 10 injections. On days 1, 5 and 10 of the injection regimen, the rats were placed in 2-level locomotor boxes for 30 min before the amphetamine injection to habituate to the boxes, and for an additional 2 hours following the injection, and stereotypy scores (drug-induced behaviours) were assessed at 1 minute intervals every 10 minutes for the duration of the 2 hour session. After the 10th injection of d-amphetamine, the rats were given 21 days off, and chronically indwelling catheters were implanted into the jugular vein under anaesthesia.
On day 21, the rats were pretreated with 1.5 nM/grTat-GluR2-3Y, or Tat-GluR2-3A or saline by either IV injection, or intracranial microinjection into the nucleus accumbens (Nac), and returned to their home cages for 60 min. The rats were then placed in the locomotor boxes (observation chambers) for 30 min and then treated with a challenge dose of d-amphetamine (2 mg/kg, IP). Stereotypy scores were then assessed as described (FIG. 12A), Points represent mean stereotypy scores (±S.E.M) for groups of rats over the 2 hour test session. […]

[3] = Dose tolerance to serial doses, vital parameters monitored; type: in vivo, Sprague-Dawley rats
Protocol: FIG. 15. Dose tolerance curve to serial doses of Tat-GluR2-3Y. Two adult male Sprague-Dawley rats were given serial doses of Tat-GluR2-3Y and the basic vital parameters were monitored.
In order to determine the maximum dose that could be administered without adverse reaction, two male Sprague Dawley rats were injected with serial doses of Tat-GluR2-3Y ranging from 0.5 nmoles/g to 30 nmoles/g and basic vital parameters were monitored. […] Assuming complete dispersion of the peptide in the animal, this dose corresponds roughly to a concentration of 3 μM.

AMPAR = assay: Quantification of AMPAR endocytosis in response to NMDA treatment (cellular ELISA), cortical neurons; type: cell-based, Wistar rat; details: 50 μM NMDA + 10 μM glycine 30 min; peptide 1 μM, 60 min pretreatment; control 69%
Protocol: The cortex was dissected from 18 days in utero Wistar embryos and was treated with trypsin-EDTA for 15 min at 37° C. The cells were then washed 3 times and triturated to a single cell suspension. The neurons with glia were then seeded at a density of ˜2.5×10^5 neurons/well in 12 well tissue culture plates coated with poly-D lysine. The cells were then cultured for 24-48 h in plating media (Gibco Neurobasal™, 1% FBS, 2% B-27 supplement, 0.5 mM […], and 25 μM glutamic acid), after which the cells were treated with Neurobasal™ maintenance media (NMM: Gibco Neurobasal™ Media+0.5 mM […], 2% B-27 supplement) with 10 μM 5-Fluoro-2′-deoxyuridine (FDU) to enrich the culture for neurons (−85%). After 24 h-48 h culture in FDU, the cells were maintained on NMM changed every 4 days.
Using cellular ELISA, the amount of intracellular versus extracellular AMPAR expression was measured allowing quantification of AMPAR endocytosis in response to NMDA insult. DIV 12-13 neurons were washed once with room temperature ECS. […] The absorbance at 492 nm was read using a μQuant plate reader (Bio-Tek Instruments Inc.). The data were analyzed by first subtracting the absorbance values for the no-primary controls from the other samples. The percentage AMPAR surface expression was then expressed as a ratio of the non-permeabilized samples to the permeabilized samples. […]

Compound	Break Point measures for drug-reward (rats [1])	total number of responses for food reward (rats [1])	mean arterial blood pressure (MABP) versus saline (Sprague-Dawley rats)	side effects (rats [2])	behaviour after revival from the dose response curve ([3]; both animals)	dose up to which the drug was tolerated ([3]; serial doses 0.5 to 30 nmoles/g, above: large decline in blood pressure, increase in breathing rate) [nmol/g]	doses evoking little response in the vital parameters monitored ([3]; serial doses, anesthetized rats)	AMPAR surface expression (AMPAR) [%]
YGRKKRRQRRRYKEGYNVYGIE [Tat-GluR2-3Y, YGRKKRRQRRR-YKEGYNVYGIE]	no significant differences in the Break Point measures for drug-reward	no significant differences in total number of responses for food reward	significantly lower mean arterial blood pressure	without any notable side effects	showed no signs of mental depression or other behavioural changes	~12	up to 6 nmoles/g	–
CN[C@H](CC(=O)O)C(=O)O [NMDA, N-methyl-D-aspartate]	–	–	–	–	–	–	–	55
